Measurements as given in ChEMBL document CHEMBL6083292, “Discovery of Novel N-Sulfonamide-tetrahydroquinolines as Potent Retinoic Acid Receptor-Related Orphan Receptor γt (RORγt) Inverse Agonists for the Treatment of Psoriasis” (J Med Chem, 2024).
Active and inactive are the calls of the source. No cut-off for these calls is given here.

How the values were obtained:
[1] = target: T1, Nuclear receptor ROR-gamma (Homo sapiens, UniProt P51449); assay: Inverse agonist activity at APC-labeled RORgammat LBD (unknown origin) assessed as inhibition of europium-labeled SRC-1 recruitment incubated for 1 hrs by dual FRET assay
T1 sequence (P51449 whole entry): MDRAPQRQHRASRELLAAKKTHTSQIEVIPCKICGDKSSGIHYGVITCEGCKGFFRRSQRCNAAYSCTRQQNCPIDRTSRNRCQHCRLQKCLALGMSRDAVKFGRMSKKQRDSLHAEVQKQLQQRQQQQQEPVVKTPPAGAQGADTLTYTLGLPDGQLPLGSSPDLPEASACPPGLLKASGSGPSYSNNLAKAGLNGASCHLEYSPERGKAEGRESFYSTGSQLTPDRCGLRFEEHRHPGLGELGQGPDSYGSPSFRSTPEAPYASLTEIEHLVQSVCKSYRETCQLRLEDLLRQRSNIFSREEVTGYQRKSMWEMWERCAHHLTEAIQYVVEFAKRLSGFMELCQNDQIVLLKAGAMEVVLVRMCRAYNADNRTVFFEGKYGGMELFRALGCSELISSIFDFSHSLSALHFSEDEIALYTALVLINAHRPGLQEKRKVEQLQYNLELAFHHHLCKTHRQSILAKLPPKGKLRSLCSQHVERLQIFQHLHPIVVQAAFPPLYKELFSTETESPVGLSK

[2] = tested on: Mus musculus; assay: Anti-inflammatory activity in imiquimod-induced BALB/c mouse psoriasis model assessed as appearance of smooth skin at 4 % administered topically as ointment once a day for 11 days by H and E staining based analysis; assay type: functional, organism-based; details: time 11.0 day
[3] = Drug concentration in pig ear assessed as retention rate at 0.0094 g administered intradermally as 4 % ointment measured at 12 hrs; assay type: ADME, tissue-based, Sus scrofa; details: in vivo, other
[4] = target: Voltage-gated inwardly rectifying potassium channel KCNH2 (Homo sapiens, UniProt Q12809); assay: Inhibition of hERG at -80 mV holding potential measured for 2.5 mins; assay type: toxicity
Sequence of Voltage-gated inwardly rectifying potassium channel KCNH2 (Q12809 whole entry): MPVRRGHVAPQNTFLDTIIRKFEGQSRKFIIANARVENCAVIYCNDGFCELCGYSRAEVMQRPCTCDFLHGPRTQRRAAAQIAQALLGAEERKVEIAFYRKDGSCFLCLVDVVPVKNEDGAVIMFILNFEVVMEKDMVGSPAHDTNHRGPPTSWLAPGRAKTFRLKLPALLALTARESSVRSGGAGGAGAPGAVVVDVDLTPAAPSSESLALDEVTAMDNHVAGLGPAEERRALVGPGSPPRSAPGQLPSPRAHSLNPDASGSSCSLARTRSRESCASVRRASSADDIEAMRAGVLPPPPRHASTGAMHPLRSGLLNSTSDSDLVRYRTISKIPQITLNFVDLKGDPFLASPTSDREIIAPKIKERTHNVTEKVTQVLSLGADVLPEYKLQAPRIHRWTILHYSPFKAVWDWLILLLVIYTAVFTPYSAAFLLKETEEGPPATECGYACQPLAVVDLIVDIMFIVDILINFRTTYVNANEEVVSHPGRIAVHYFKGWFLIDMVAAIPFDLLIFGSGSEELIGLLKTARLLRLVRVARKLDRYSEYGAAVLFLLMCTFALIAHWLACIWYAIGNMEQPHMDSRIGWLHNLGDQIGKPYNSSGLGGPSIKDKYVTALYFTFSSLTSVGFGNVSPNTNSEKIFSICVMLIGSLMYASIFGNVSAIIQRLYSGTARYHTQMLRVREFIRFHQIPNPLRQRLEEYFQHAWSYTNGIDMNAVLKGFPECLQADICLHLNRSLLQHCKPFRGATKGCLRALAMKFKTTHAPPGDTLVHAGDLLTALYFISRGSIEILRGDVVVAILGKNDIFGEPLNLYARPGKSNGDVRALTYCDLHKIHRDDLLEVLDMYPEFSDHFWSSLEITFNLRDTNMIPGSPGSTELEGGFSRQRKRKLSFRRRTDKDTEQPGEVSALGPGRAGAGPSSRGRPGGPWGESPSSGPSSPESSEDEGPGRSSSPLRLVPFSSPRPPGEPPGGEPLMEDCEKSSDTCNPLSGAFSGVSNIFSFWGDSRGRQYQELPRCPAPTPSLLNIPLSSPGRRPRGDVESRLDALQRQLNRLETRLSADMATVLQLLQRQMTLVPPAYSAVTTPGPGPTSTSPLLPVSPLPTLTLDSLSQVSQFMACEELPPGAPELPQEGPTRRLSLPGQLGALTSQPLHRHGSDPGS

[5] = Drug concentration in pig ear assessed as retention rate at 0.0085 g administered intradermally as 4 % ointment measured at 12 hrs; assay type: ADME, tissue-based, Sus scrofa; details: in vivo, other
[6] = Toxicity in BALB/c mouse assessed as change in body weight at 0.25 to 4 % administered topically as ointment once a day for 11 days; details: in vivo, topical_or_ocular, 264 h, dose 0.25-4 %, time 11 day
[7] = tested on: Mus musculus; assay: Anti-inflammatory activity in imiquimod-induced BALB/c mouse psoriasis model assessed as appearance of clear sebaceous gland at 4 % administered topically as ointment once a day for 11 days by H and E staining based analysis; assay type: functional, organism-based; details: time 11.0 day
[8] = Acute toxicity in BALB/c mouse assessed as signs of mortality at 10 to 20 % administered topically as ointment once a day for 12 days; details: in vivo, topical_or_ocular, 288 h, dose 10-20 %, time 12 day
[9] = tested on: Mus musculus; assay: Antiinflammatory activity against imiquimod-induced psoriasis BALB/c mouse model assessed as reduction in body weight at 100 mg/kg, ip qd for 7 days; assay type: functional; design: scale not given: the % may be the effect or the level left; details: time 7 day
[10] = tested on: Mus musculus; assay: Antiinflammatory activity against imiquimod-induced psoriasis BALB/c mouse model assessed as effect on spleen enlargement at 100 mg/kg, ip qd for 7 days; assay type: functional, organism-based; details: time 7.0 day
[11] = Metabolic stability in CD-1 mouse liver microsomes assessed as half life preincubated for 5 mins followed by NADPH addition and measured upto 60 mins by LC-MS/MS analysis; assay type: ADME, Microsome; details: time < 65 min
[12] = tested on: Mus musculus; assay: Antiinflammatory activity against imiquimod-induced psoriasis BALB/c mouse model at 4 % administered topically as ointment once a day for 11 days; assay type: functional, organism-based; details: time 11.0 day
[13] = Metabolic stability in CD-1 mouse liver assessed as intrinsic clearance preincubated for 5 mins followed by NADPH addition and measured upto 60 mins by LC-MS/MS analysis; assay type: ADME, tissue-based; details: time < 65 min, read-out: CLH
[14] = Drug concentration in BALB/c mouse plasma at 4 % administered topically as ointment measured at 10 mins; assay type: ADME, cell-free; details: topical or ocular
[15] = tested on: Mus musculus; assay: Antiinflammatory activity against imiquimod-induced psoriasis BALB/c mouse model assessed as change in ear erythema score at 100 mg/kg, ip qd for 7 days; assay type: functional, organism-based; details: time 7.0 day
[16] = tested on: Mus musculus; assay: Antiinflammatory activity against imiquimod-induced psoriasis BALB/c mouse model assessed as body weight at 100 mg/kg, ip qd for 7 days; assay type: functional; details: time 7 day
[17] = Inhibition of mouse Th17 cells differentiation from CD4+ T cells flow cytometric analysis
[18] = tested on: Mus musculus; assay: Antiinflammatory activity against imiquimod-induced psoriasis BALB/c mouse model at 0.25 to 4 % administered topically as ointment once a day for 11 days; assay type: functional, organism-based; details: dose 0.25-4 %, time 11.0 day
[19] = tested on: Mus musculus; assay: Antiinflammatory activity against imiquimod-induced psoriasis BALB/c mouse model assessed as change in ear thickness at 100 mg/kg, ip qd for 7 days; assay type: functional, organism-based; details: time 7.0 day
[20] = Drug concentration in pig ear assessed as retention rate at 0.0090 g administered intradermally as 4 % ointment measured at 12 hrs; assay type: ADME, tissue-based, Sus scrofa; details: in vivo, other
[21] = tested on: Mus musculus; assay: Anti-inflammatory activity in imiquimod-induced BALB/c mouse psoriasis model assessed as reduction in dermal inflammatory cell infiltration at 4 % administered topically as ointment once a day for 11 days by H and E staining based analysis; assay type: functional, organism-based; details: time 11.0 day
[22] = Metabolic stability in CD-1 mouse microsomes assessed as intrinsic clearance preincubated for 5 mins followed by NADPH addition and measured upto 60 mins by LC-MS/MS analysis; assay type: ADME, Microsome; details: time < 65 min, read-out: CLH
[23] = Drug concentration in pig ear assessed as retention amount at 0.0094 g administered intradermally as 4 % ointment measured at 12 hrs; assay type: ADME, tissue-based, Sus scrofa; details: in vivo, other
[24] = tested on: Mus musculus; assay: Anti-inflammatory activity in imiquimod-induced BALB/c mouse psoriasis model assessed as improvement in spinous cell layer at 4 % administered topically as ointment once a day for 11 days by H and E staining based analysis; assay type: functional, organism-based; details: time 11.0 day
[25] = Acute toxicity in BALB/c mouse assessed as signs of morbidity at 10 to 20 % administered topically as ointment once a day for 12 days; details: in vivo, topical_or_ocular, 288 h, dose 10-20 %, time 12 day
[26] = Drug concentration in BALB/c mouse plasma at 4 % administered topically as ointment measured at 2 hrs; assay type: ADME, cell-free; details: topical_or_ocular
[27] = tested on: Mus musculus; assay: Anti-inflammatory activity in imiquimod-induced BALB/c mouse psoriasis model assessed as appearance of clear hair follicle at 4 % administered topically as ointment once a day for 11 days by H and E staining based analysis; assay type: functional, organism-based; details: time 11.0 day
[28] = Inhibition of mouse Th17 cells differentiation from CD4+ T cells assessed as maximum inhibition flow cytometric analysis relative to control; assay type: functional
[29] = Drug concentration in pig ear assessed as retention amount at 0.0090 g administered intradermally as 4 % ointment measured at 12 hrs; assay type: ADME, tissue-based, Sus scrofa; details: in vivo, other
[30] = Drug concentration in pig ear assessed as retention rate at 0.0086 g administered intradermally as 4 % ointment measured at 12 hrs; assay type: ADME, tissue-based, Sus scrofa; details: in vivo, other
[31] = tested on: Mus musculus; assay: Antiinflammatory activity against imiquimod-induced psoriasis BALB/c mouse model at 1 to 4 % administered topically as ointment once a day for 11 days; assay type: functional, organism-based; details: time 11.0 day
[32] = Acute toxicity in BALB/c mouse assessed as body weight gain at 10 to 20 % administered topically as ointment once a day for 12 days; details: in vivo, topical_or_ocular, 288 h, dose 10-20 %, time 12 day
[33] = Acute toxicity in BALB/c mouse at 20 % administered topically as ointment once a day for 12 days; details: in vivo, topical_or_ocular, 288 h, time 12 day
[34] = Drug concentration in pig ear assessed as retention amount at 0.0085 g administered intradermally as 4 % ointment measured at 12 hrs; assay type: ADME, tissue-based, Sus scrofa; details: in vivo, other
[35] = Toxicity in BALB/c mouse assessed as change in body weight at 4 % administered topically as ointment once a day for 11 days; details: in vivo, topical_or_ocular, 264 h, time 11 day
[36] = tested on: Mus musculus; assay: Antiinflammatory activity against imiquimod-induced psoriasis BALB/c mouse model assessed as body weight at 5 mg/kg, ip qd for 7 days; assay type: functional; details: time 7 day
[37] = tested on: Mus musculus; assay: Antiinflammatory activity against imiquimod-induced psoriasis BALB/c mouse model assessed as reduction in body weight at 5 mg/kg, ip qd for 7 days; assay type: functional; design: scale not given: the % may be the effect or the level left; details: time 7 day
[38] = tested on: Mus musculus; assay: Antiinflammatory activity against imiquimod-induced psoriasis BALB/c mouse model assessed as reduction in spleen to body weight ratio at 5 mg/kg, ip qd for 7 days; assay type: functional, organism-based; details: time 7.0 day

CC(=O)c1ccc(Nc2ccc3c(c2)CCCN3S(=O)(=O)N(C)Cc2ccccc2)cc1
IC50 [1]: 7.6 µM

CN(Cc1ccccc1)S(=O)(=O)N1CCCc2cc(N3CCN(C(=O)C4CCC4)CC3)ccc21
IC50 [1]: 13 µM

CN(Cc1ccccc1)S(=O)(=O)N1CCCc2cc(N3CC4(CCOCC4)C3)ccc21
IC50 [1]: 19.1 µM

CN(Cc1ccc(C(C)(C)C)cc1)S(=O)(=O)N1CCCc2cc(Nc3ccc4c(c3)CCCC4=O)ccc21
Activity [2]: Active | Drug uptake [3]: 5.22% | IC50 [4]: > 40 µM | Drug uptake [5]: 5.79% | Activity [6]: Non-toxic | Activity [7]: Active | Activity [8]: Non-toxic | Activity [9]: 13% | Activity [10]: Active | half-life [11]: 18.2 min | Activity [12]: Active | IC50 [1]: 0.094 µM | CLint scaled [13]: 301 mL/min/kg | concentration at 10 min [14]: 75 ng/mL | Activity [15]: Active | Activity [16]: 2.41 g | IC50 [17]: 1.57 µM | Activity [18]: Active | Activity [19]: Active | Drug uptake [20]: 3.27% | Activity [21]: Active | microsomal CLint [22]: 76 µL/min/mg | Drug uptake [23]: 0.012 mg | Activity [24]: Active | Activity [25]: Non-toxic | Drug uptake [26]: Not_active | Activity [27]: Active | Imax [28]: 95% | Drug uptake [29]: 0.012 mg | Drug uptake [30]: 4.82% | Activity [31]: Active | Activity [32]: Non-toxic | Activity [33]: Non-toxic | Drug uptake [34]: 0.019 mg

CN(Cc1ccccc1)S(=O)(=O)N1CCCc2cc(N3CCN(C(=O)C4CCOCC4)CC3)ccc21
IC50 [1]: 6.8 µM

CC(=O)N1CCN(c2ccc3c(c2)CCCN3S(=O)(=O)N(C)Cc2ccc(C(O)(C(F)(F)F)C(F)(F)F)cc2)CC1
IC50 [1]: 1.4 µM

CN(Cc1ccccc1)S(=O)(=O)N1CCCc2cc(N3CCN(C(=O)C4CCCC4)CC3)ccc21
IC50 [1]: 3.3 µM

CN(Cc1ccccc1)S(=O)(=O)N1CCCc2cc(N3CC4(COC4)C3)ccc21
IC50 [1]: 0.648 µM

CN(Cc1ccccc1)S(=O)(=O)N1CCCc2cc(N3CCN(C(=O)C(F)(F)F)CC3)ccc21
IC50 [1]: 4.9 µM

CC(=O)N1CCN(c2ccc(CN(C3CCC3)S(=O)(=O)Cc3ccccc3)cc2)CC1
Imax [28]: 90.1%

CN(Cc1ccc(C(C)(C)C)cc1)S(=O)(=O)N1CCCc2cc(N3CCC(C(=O)O)CC3)ccc21
IC50 [1]: 0.29 µM

CN(Cc1ccccc1)S(=O)(=O)N1CCCc2cc(N3CCN(C(=O)C4CCOC4)CC3)ccc21 (stereo not drawn)
IC50 [1]: 18.6 µM

CC(=O)N1CCN(c2ccc3c(c2)CCCN3S(=O)(=O)N(C)Cc2ccc(SC(F)(F)F)cc2)CC1
IC50 [1]: 6.6 µM

CCc1ccc(N(CC(C)C)S(=O)(=O)c2ccc(OCC3CCOCC3)c(CO)c2)cc1 [GSK2981278]
Activity [12]: Active | Activity [35]: Non-toxic

CC(=O)N1CCN(c2cc(F)c3c(c2)CCCN3S(=O)(=O)N(C)Cc2ccccc2)CC1
IC50 [1]: 0.021 µM

CC(=O)N1CCN(c2ccc3c(c2)C(C)(C)CCN3S(=O)(=O)N(C)Cc2ccccc2)CC1
IC50 [1]: 9.5 µM

CCc1ccc(N(C)S(=O)(=O)N2CCCc3cc(N4CCN(C(C)=O)CC4)ccc32)cc1
IC50 [1]: 13.1 µM

CCc1ccc(S(=O)(=O)N2CCCc3cc(N4CCN(C(C)=O)CC4)ccc32)cc1
IC50 [1]: 9.2 µM

CC(=O)N1CCN(c2ccc3c(c2)N(S(=O)(=O)N(C)Cc2ccccc2)CCC3)CC1
IC50 [1]: 0.097 µM

CC(=O)N1CCN(c2ccc3c(c2)CCCN3S(=O)(=O)N(C)C(C)c2ccc(F)cc2)CC1 (stereo not drawn)
IC50 [1]: 27 µM

C[C@@H]1C[C@H]2[C@@H]3CCC4=CC(=O)C=C[C@]4(C)[C@@]3(F)[C@@H](O)C[C@]2(C)[C@@]1(O)C(=O)CO [DEXAMETHASONE]
Activity [36]: 3.43 g | Activity [37]: 18% | Activity [38]: Active

CC(=O)N1CCN(c2ccc3c(c2)CCCN3S(=O)(=O)N(C)Cc2ccc(C(F)(F)F)o2)CC1
IC50 [1]: 27 µM
